pIC50: −log10 of the molar value. Converted amounts (≈) assume the structure as drawn. “Also recorded” adds a separate entry of the source.
Legend:
HeLa cells = experiment: MTT assay HeLa; format: cell-based; settings: Homo sapiens
Method: Cells. Human cancer cell lines were obtained from American Type Culture Collection: HTB-9 (bladder), HeLa-S3 (cervix), DU145 (prostate), H460 (lung), MCF-7 (breast), K562 (leukocytes), HCT116 (colon), HepG2 (liver), U2OS (bone), T98G (brain), SK-MEL-5 (Skin) and OVCAR-3 (ovary). The cells were grown in following culture media: HeLa-53, DU145, MCF-7, Hep-G2 and T98G are in MEN (Earle's salts); HTB-9, H460, K562 and OVCAR-3 in RPMI-1640; HCT-116 and U2OS in McCoy-5A. They are supplemented with 10% fetal calf serum, glutamine and antibiotics, and incubated in an incubator with 5% CO2 humidified at 37° C.
MTT Assay. The procedure for MTT assay followed the method described by Carmichael et al. (1987) with modifications. […] The formazan (product of the reduction of tetrazolium by viable cells) formed and was dissolved with DMSO and the O.D. at 490 nm, and was measured by an ELISA reader. The MTT level of the cells before drug-treatment was also measured (T0). The % cell-growth (% G) is calculated as: % G=(TD−T0/TC−T0)×100(1), where TC or TD represents O.D. readings of control or drug-treated cells. When T0>TD, then the cytotoxicity (LC) expressed as % of the control is calculated as: % LC=(TD−T0/T0)×100(2).

OVCA 429 = experiment: MTT assay OVCA 429; format: cell-based; settings: Homo sapiens, OVCA429; OVCA 429, Serous
Method: (§1) Majority of ovarian cancers arise from the surface epithelium of ovary, most of them belong to the histological subtypes of clear cell and serous carcinoma. We obtained 10 more human ovarian carcinoma cell-lines of these histological subtypes for these studies. The inhibition activity exerted by Xanifolia-Y was determined with MTT assay.

Caov 3 = experiment: MTT assay Caov 3; format: cell-based; settings: Homo sapiens; Caov 3, Serous
Method: as §1

[1] = system: ES2 (human ovarian cancer) cells transplanted intra-peritoneally; experiment: Animal study, survival of mice with intra-peritoneal ES2 tumor; format: in vivo, Athymic Nu/Nu mice; settings: for survival of tumor bearing mice: 2.5 mg/kg; for median survival time: i.p. 2.5 mg/kg
Method: Methods • Athymic Nu/Nu mice are divided into three groups (A, B and C) with four animals in each group. • On day 0, mice of group A and B were transplanted intra-peritoneally with ES2 (human ovarian cancer) cells. • On day 1, mice from B and C groups received drug (Xanifolia-Y, by i.p. route at dose of 5 mg/kg) • On days 2 to 4, and 7 to 11, B and C groups animals received daily drug administration of Xanifolia-Y, by i.p. route at dose of 2.5 mg/kg. • Group A mice have no drug-treatment.
Methods • Athymic Nu/Nu mice were divided into three groups (A, D and E) with four animals in each group. • On day 0, all mice were transplanted intra-peritoneally with ES2 (human ovarian cancer) cells. • Group A mice received no drug-treatment. • Group D: From day 4, mice received a daily drug administration of Xanifolia-Y, via i.p. route for 9 days at dose of 2.5 mg/kg. • Group E: From day 10, mice received daily drug administration of Xanifolia-Y, via i.p. route for 10 days at dose of 2.5 mg/kg. […]

[2] = system: Fibronectin secretion from Hey8A (human ovarian carcinoma cells); experiment: Fibronectin secretion (Western blot), Hey8A cells; format: cell-based; settings: 10 ug/ml, 24 hours
Method: Inhibition of Fibronectin secretion is physiological and the determination of its quantity is based on the following criteria: • 1. Fibronectin is secreted from viable cells. Only cell with over 85% viable cells after drug-treatment are employed in these experiments. The viable cells were determined by MTT assay. • 2. For comparison, the immuno-band intensity from each samples are normalized with cell mass. The cell mass was determined by the MTT assay and is assigned as a MTT unit for each cell sample.
Cells: Hey8A (human ovarian carcinoma cells) were grew in RPMI 1640 medium to 90% confluent before drug-treatment. Drug-treatment: Cells cultures were replaced with fresh RPMI medium containing either DMSO (as control) [D1]; or Xanifolia-Y (10, 15, or 20 ug/ml) [Y1, Y2 and Y3]. Aliquot of medium was removed as 0 hours sample and no FN was detected at this time. After 24 hours, aliquot of culture medium was taken out for Fibronectin determination (Western blot method). Cell viability at 24 hours was determined by MTT assay. Cultures were replaced with RPMI medium (5 ml) with MTT and incubated for an hour. The formation of formazan was dissolved in DMSO and OD at 570 nm was measured.
Western Blot: Spent culture medium (0.6 ml) was mixed with SDS sample buffer (0.2 ml), boiled for 3 minutes before loading to SDS gel. Samples (60 ul/lane) were applied to a 6% SDS gel and electrophoresis was conducted with 100 volts for 2 hours. Protein was transferred to a nitrocellulose paper electrophoretically (30 min at 100 volts). The Western blot was incubated with the first antibody (mouse anti-FN, specific to human FN, SIGMA F0916) and second antibody (Anti-mouse IgG AP conjugated, Promega S3721). The immunobands were developed with BCIP/NBT color development system (Promega S3771).

OVCAR3 cells = experiment: Apoptosis by flow cytometry of GFP-Annexin-V and propidium iodide; format: cell-based, human; settings: 24 h after exposure
Method: Experiment of apoptosis of OVCAR3 cells after treatment with Xanifolia-Y was assessed with flow cytometry of GFP-Annexin-V and propidium iodide.

K562 cells membrane = experiment: EM study of membrane structure; format: cell-based, human; settings: 5 uM, 60 min
Source text: Xanifolia-Y has a potent hemolytic activity in red blood cells (FIG. 27). To study the effect of Xanifolia-Y on membrane structure, the morphology of cell membrane treated with Xanifolia-Y was examined with EM. […] Solvent DMSO and AKOH-Y (a derivative of Xanifolia-Y without the angeloyl group and it has no activity) served as controls. Cells were negative stained with 1% UAc and subsequently examined with EM.

[3] = drug-treatment started on day 10 after tumor inoculation
[4] = drug-treatment starting on day 4 after tumor inoculation

C/C=C(/C)C(=O)O[C@H]1[C@H](OC(=O)/C(C)=C\C)[C@@]2(CO)C(CC1(C)C)C1=CCC3[C@@]4(C)CC[C@H](O[C@@H]5OC(C(=O)O)[C@@H](O)C(O[C@@H]6O[C@@H](CO)C(O)C6O)C5O[C@@H]5OC(CO)[C@H](O)C(O)C5O)C(C)(C)C4CC[C@@]3(C)[C@]1(C)[C@@H](O)[C@H]2O (stereo partly drawn) [Xanifolia-Y, 3-O-[β-D-galactopyranosyl (1→2)]-α-L-arabinofuranosy (1→3)-β-D-glucuronopyranosyl-21,22-O-diangeloyl-3β, 15α, 16α, 21β, 22α, 28-hexahydroxyolean-12-ene]
IC50 (HeLa cells): 20 µg/mL (≈ 17.5 µM)
pIC50 (OVCA 429): 5.15
pIC50 (Caov 3): 5.15
survival of mice without tumor given drug ([1]; Group C: no tumor, i.p. 5 mg/kg day 1, 2.5 mg/kg days 2-4 and 7-11): over 50 days
survival of tumor bearing mice ([1]; Group D: i.p. 2.5 mg/kg daily, 9 times from day 4): all survived; also recorded: no death in 50 days
survival of tumor bearing mice ([1]; Group E: i.p. 2.5 mg/kg daily, 10 times from day 10): half the number of mice survived; also recorded: half of the mice survive in 50 days
extension of life span [1, 3]: 29%
extension of life span [1, 4]: 141%
median survival time [1, 3]: 31 days
median survival time [1, 4]: 58 days
Fibronectin secreted as compared with the DMSO control [2]: 31%
average band intensity after corrected with the MTT unit [2]: 366
inhibition at 10 µg/mL ([2]; Homo sapiens, Ovarian carcinoma cell): 69%
form of cell death induced (OVCAR3 cells): apoptosis is a major form of cell death
membrane morphology (EM) (K562 cells membrane): patches of pits were found in the membrane

— patent US10213451B2, “Methods and compounds for modulating the secretion or expression of adhesion proteins or angiopoietins of cells” (PACIFIC ARROW LIMITED, priority 2004, dated 2019)
